Consider 57 compounds from patent publication US12459957B2, “Therapeutic compounds and methods” (GENENTECH, INC., priority 2021, dated 2025).

In general, IC50 refers to the concentration that inhibits the measured activity by half. Low values mean inhibition by little substance, high ones a need for much substance.

Each structure is given as a SMILES string. Bounds are passed on as bounds.

The test system of one experiment is neutrophils (PMA-stimulated NETosis). The experiment in a line: Quantification of NETosis using SYTOX Green. Format: cell-based, human. As to conditions: Homo sapiens, Neutrophil; NETosis, SYTOX Green-stained neutrophils, PMA-stimulated. The source says:
Semi-automated analysis of both phase and fluorescence images of SYTOX Green-stained neutrophils used a MATLAB algorithm. Total cells were counted by scoring phase standard deviation and radial symmetry. NETosis was classified in cells by measuring the DNA area in the fluorescence image and comparing with a select internal training set for each experiment. Unstimulated cells and PMA-stimulated, pyocyanin-inhibited cells served as negative controls. PMA-stimulated cells served as a positive control. NET-forming cells are presented as a percentage of total cells.
Turning to `CC(=O)Nc1ccc2c(c1)OCc1cc(-c3ccccc3)nn1C2` [Example 1, N-(2-Phenyl-4H,10H-benzo[f]pyrazolo[5,1-c][1,4]oxazepin-7-yl)acetamide], the IC50 amounted to 190 ± 30 nM.
Still for that read-out and setting: as for `CC(=O)Nc1ccc2c(c1)OCc1cc(-c3cccc(C#CCCCO)c3)nn1C2` [Example 5, N-(2-(3-(5-hydroxypent-1-yn-1-yl)phenyl)-4H,10H-benzo[f]pyrazolo[5,1-c][1,4]oxazepin-7-yl)acetamide], the figure is 3000 ± 1000 nM.

The same experiment, now with this note: compound at 5 uM; NET-forming cells as percentage of total cells; vehicle 79.66, untreated 14.54.
As for `CC(=O)Nc1ccc2c(c1)OCc1cc(-c3cnn(C(F)F)c3)nn1C2` [Example 67, N-(2-(1-(difluoromethyl)-1H-pyrazol-4-yl)-4H,10H-benzo[f]pyrazolo[5,1-c][1,4]oxazepin-7-yl)acetamide], the “5 uM (% NETosis)” value turned out to be 39.88%.
The same measure, in the same setting: in the case of `c1ccc(-c2cc3n(n2)Cc2ccc(Nc4cn[nH]c4)cc2OC3)cc1` [Example 19] it was 62.75%; in that of `Cc1cc(Nc2ccc3c(c2)OCc2cc(-c4ccccc4)nn2C3)[nH]n1` [Example 33], 69.42%.
On the same count and under the same terms, in the case of `CC(=O)Nc1ccc2c(c1)OCc1cc(-c3cc(C)nn3C)nn1C2` [Example 58] it was 53.96%; in that of `CC(=O)Nc1ccc2c(c1)OCc1cc(-c3ccccc3)nn1C2` [Example 1, N-(2-Phenyl-4H,10H-benzo[f]pyrazolo[5,1-c][1,4]oxazepin-7-yl)acetamide], 37.78%.
The same measure, in the same setting: in the case of `N#CCNc1ccc2c(c1)OCc1cc(-c3ccccc3)nn1C2` [Example 39] it was 52.08%; in that of `CC(=O)Nc1ccc2c(c1)OCc1cc(-c3ccncc3C)nn1C2` [Example 68], 43.49%; in that of `CC(=O)Nc1ccc2c(c1)OCc1cc(-c3ccccc3F)nn1C2` [Example 55], 36.33%.
In the case of `CC(=O)Nc1ccc2c(c1)OCc1cc(-c3cncn3C)nn1C2` [Example 53], the “5 uM (% NETosis)” value is listed as 57.77%.
The same measure, in the same setting: in the case of `CC(=O)Nc1ccc2c(c1)OCc1cc(-c3ccccc3C3CC3)nn1C2` [Example 76] it was 63.32%.
Consider `CC(=O)Nc1ccc2c(c1)OCc1cc(-c3ccccc3NC(C)=O)nn1C2` [Example 105], for which the “5 uM (% NETosis)” value is 70.78%.
Same read-out and setting: in the case of `CC(=O)Nc1ccc2c(c1)OCc1cc(-c3cncs3)nn1C2` [Example 54] it was 37.45%; in that of `Clc1cc(Nc2ccc3c(c2)OCc2cc(-c4ccccc4)nn2C3)[nH]n1` [Example 27], 54.56%.
Still for that read-out and setting: as for `Cn1cc(-c2ccc3c(c2)OCc2cc(-c4ccccc4)nn2C3)cn1` [Example 11], the figure is 80.81%; as for `Clc1[nH]ncc1Nc1ccc2c(c1)OCc1cc(-c3ccccc3)nn1C2` [Example 28, N-(5-chloro-1H-pyrazol-4-yl)-2-phenyl-4H,10H-benzo[f]pyrazolo[5,1-c][1,4]oxazepin-7-amine], 44.49%.
Same read-out and setting: in the case of `COc1ccncc1-c1cc2n(n1)Cc1ccc(NC(C)=O)cc1OC2` [Example 70] it was 78.10%; in that of `CC(=O)Nc1ccc2c(c1)OCc1cc(-c3ccccc3S(C)(=O)=O)nn1C2` [Example 81], 84.34%.
As to `CNC(=O)c1ccc(-c2cc3n(n2)Cc2ccc(NC(C)=O)cc2OC3)cn1` [Example 73], the “5 uM (% NETosis)” value stood at 82.63%.
On the same count and under the same terms, in the case of `Cn1cc(Nc2ccc3c(c2)OCc2cc(-c4ccccc4)nn2C3)c(Cl)n1` [Example 31] it was 85.26%; in that of `CC(=O)Nc1ccc2c(c1)OCc1cc(-c3cccnc3C3CC3)nn1C2` [Example 65], 83.56%.
Still for that read-out and setting: as for `c1ccc(-c2cc3n(n2)Cc2ccc(Nc4ccn[nH]4)cc2OC3)cc1` [Example 36], the figure is 46.06%.
The same measure, in the same setting: as for `CC(=O)Nc1ccc2c(c1)OCc1cc(-c3ccc(CN(C)C)cc3)nn1C2` [Example 107], the figure is 85.67%.
As for `c1ccc(-c2cc3n(n2)Cc2ccc(NC4CC4)cc2OC3)cc1` [Example 26], the “5 uM (% NETosis)” value is on record as 78.70%.
Same read-out and setting: as for `FC(F)(F)CNc1ccc2c(c1)OCc1cc(-c3ccccc3)nn1C2` [Example 37], the figure is 83.25%.
Still for that read-out and setting: as for `Cn1cc(Nc2ccc3c(c2)OCc2cc(-c4ccccc4)nn2C3)c(C#N)n1` [Example 34], the figure is 80.80%.
On the same count and under the same terms, as for `Oc1cc(Nc2ccc3c(c2)OCc2cc(-c4ccccc4)nn2C3)[nH]n1` [Example 22], the figure is 79.55%; as for `COc1cc(-c2cc3n(n2)Cc2ccc(NC(C)=O)cc2OC3)c(OC)nn1` [Example 85], 74.51%.
For the compound `COc1cccc(C#N)c1-c1cc2n(n1)Cc1ccc(NC(C)=O)cc1OC2` [Example 94], the “5 uM (% NETosis)” value was determined as 90.90%.
On the same count and under the same terms, in the case of `c1ccc(-c2cc3n(n2)Cc2ccc(-c4cncs4)cc2OC3)cc1` [Example 16] it was 80.91%; in that of `c1ccc(-c2cc3n(n2)Cc2ccc(-c4cnc5n4CCCC5)cc2OC3)cc1` [Example 13], 80.46%; in that of `CC(=O)Nc1ccc2c(c1)OCc1cc(-c3ccnn3C3CC3)nn1C2` [Example 60], 63.78%.
The same measure, in the same setting: in the case of `CC(=O)Nc1ccc2c(c1)OCc1cc(-c3ccc4c(c3)NC(=O)C4)nn1C2` [Example 84] it was 42.93%.
The same measure, in the same setting: as for `C#CCNc1ccc2c(c1)OCc1cc(-c3ccccc3)nn1C2` [Example 41], the figure is 73.65%; as for `CCc1n[nH]c(Nc2ccc3c(c2)OCc2cc(-c4ccccc4)nn2C3)c1Cl` [Example 24], 81.55%.
`CC(=O)Nc1cccc(-c2cc3n(n2)Cc2ccc(NC(C)=O)cc2OC3)c1` [Example 104]: the “5 uM (% NETosis)” value worked out at 26.79%.
Same read-out and setting: as for `CC(=O)Nc1ccc2c(c1)OCc1cc(-c3ccc4[nH]c(=O)oc4c3)nn1C2` [Example 87], the figure is 78.92%.

For another experiment, the system named is neutrophils (PMA-stimulated ROS). The experiment in a line: ROS detection assay (ROS-Glo, H2O2). Format: cell-based. As to conditions: Neutrophil; human neutrophils, 30 min preincubation, 50 nM PMA for 30 min. The procedure:
ROS were measured in neutrophils using the ROS-Glo bioluminescent assay (Promega) for the direct detection of H2O2. Neutrophils were isolated from fresh human blood using a biphasic Histopaque gradient as described here. Cells (100 uL per well) were plated in 96-well plates at a density of 200,000 cells/mL in high glucose DMEM medium. Cells were preincubated with either DMSO vehicle or compounds (10-point dilution curve starting at 2 uM with 3-fold serial dilution) for 30 min, and then stimulated with 50 nM PMA for 30 min. Luminescence, after the addition of H2O2 substrate solution for 20 min, and then ROS-Glo detection solution for 20 min, was recorded on a luminescence plate reader. The fifty percent inhibitory concentration (IC50) was determined with GraphPad Prism by plotting the assay output (RLU) versus the logarithm of the compound concentration using a non-linear sigmoid with variable slope algorithm with the default curve-fitting parameters in the Prism software.
With `CC(=O)Nc1ccc2c(c1)OCc1cc(-c3cnn(C(F)F)c3)nn1C2` [Example 67, N-(2-(1-(difluoromethyl)-1H-pyrazol-4-yl)-4H,10H-benzo[f]pyrazolo[5,1-c][1,4]oxazepin-7-yl)acetamide], the half-inhibitory concentration (IC50) came out at 192 nM.
Still for that read-out and setting: as for `c1ccc(-c2cc3n(n2)Cc2ccc(Nc4cn[nH]c4)cc2OC3)cc1` [Example 19], the figure is greater than 20000 nM; as for `CC(=O)Nc1ccc2c(c1)OCc1cc(-c3ccncc3F)nn1C2` [Example 129], 903 nM.
The same measure, in the same setting: as for `Cc1cc(Nc2ccc3c(c2)OCc2cc(-c4ccccc4)nn2C3)[nH]n1` [Example 33], the figure is greater than 20000 nM; as for `CC(=O)Nc1ccc2c(c1)OCc1cc(-c3ccnc(C)c3)nn1C2` [Example 126], 529 nM.
The same measure, in the same setting: as for `CC(=O)Nc1ccc2c(c1)OCc1cc(-c3ccncc3)nn1C2` [Example 124], the figure is 410 nM; as for `CC(=O)Nc1ccc2c(c1)OCc1cc(-c3cc(C)nn3C)nn1C2` [Example 58], 2440 nM.
As for `CC(=O)Nc1ccc2c(c1)OCc1cc(-c3cnn(C4CC4)c3)nn1C2` [Example 109], the IC50 was 480 nM.
On the same count and under the same terms, in the case of `CC(=O)Nc1ccc2c(c1)OCc1cc(-c3cnn(C(F)(F)F)c3)nn1C2` [Example 125, N-(2-(1-(trifluoromethyl)-1H-pyrazol-4-yl)-4H,10H-benzo[f]pyrazolo[5,1-c][1,4]oxazepin-7-yl)acetamide] it was 56 nM; in that of `CC(=O)Nc1ccc2c(c1)OCc1cc(-c3ccccc3)nn1C2` [Example 1, N-(2-Phenyl-4H,10H-benzo[f]pyrazolo[5,1-c][1,4]oxazepin-7-yl)acetamide], 93 nM; in that of `CC(=O)Nc1ccc2c(c1)OCc1cc(-c3cn(C)nc3C)nn1C2` [Example 113], 1460 nM.
The same measure, in the same setting: in the case of `N#CCNc1ccc2c(c1)OCc1cc(-c3ccccc3)nn1C2` [Example 39] it was 510 nM; in that of `CC(=O)Nc1ccc2c(c1)OCc1cc(-c3cnn(C4CCCCO4)c3)nn1C2` (centres unmarked) [Example 115], 7750 nM; in that of `CC(=O)Nc1ccc2c(c1)OCc1cc(-c3ccncc3C)nn1C2` [Example 68], 233 nM.
The same measure, in the same setting: in the case of `CC(=O)Nc1ccc2c(c1)OCc1cc(-c3cn(C)nc3C(F)(F)F)nn1C2` [Example 110] it was 1580 nM.
The compound `CCn1cc(-c2cc3n(n2)Cc2ccc(NC(C)=O)cc2OC3)cn1` [Example 114] came in with a 50% inhibitory concentration (IC50) of 405 nM.
Take `CC(=O)Nc1ccc2c(c1)OCc1cc(-c3c[nH]nc3C(C)C)nn1C2` [Example 111]: the half-inhibitory concentration (IC50) worked out at 2100 nM.
`CC(=O)Nc1ccc2c(c1)OCc1cc(-c3cnn(CC(C)C)c3)nn1C2` [Example 120] showed a half-maximal inhibitory concentration (IC50) of 346 nM.
Still for that read-out and setting: as for `CC(=O)Nc1ccc2c(c1)OCc1cc(-c3ccccc3F)nn1C2` [Example 55], the figure is 46 nM.
Compound `CC(=O)Nc1ccc2c(c1)OCc1cc(-c3c[nH]nc3C3CC3)nn1C2` [Example 118] came in with an IC50 greater than 20000 nM.
On the same count and under the same terms, as for `CC(=O)Nc1ccc2c(c1)OCc1cc(-c3cnn(C)c3C)nn1C2` [Example 121], the figure is 836 nM; as for `CC(=O)Nc1ccc2c(c1)OCc1cc(-c3cncs3)nn1C2` [Example 54], greater than 20000 nM; as for `CC(=O)Nc1ccc2c(c1)OCc1cc(-c3cnn(C4COC4)c3)nn1C2` [Example 119], 714 nM.
Same read-out and setting: in the case of `CC(=O)Nc1ccc2c(c1)OCc1cc(-c3cnn(C)c3)nn1C2` [Example 112] it was 3050 nM.
On the same count and under the same terms, as for `CC(=O)Nc1ccc2c(c1)OCc1cc(-c3cncnc3)nn1C2` [Example 128], the figure is 3100 nM; as for `CC(=O)Nc1ccc2c(c1)OCc1cc(-c3cnn4c3CCC4)nn1C2` [Example 122], 1200 nM.
`c1ccc(-c2cc3n(n2)Cc2ccc(Nc4ccn[nH]4)cc2OC3)cc1` [Example 36] registered an IC50 of 1400 nM.
The same measure, in the same setting: in the case of `CC(=O)Nc1ccc2c(c1)OCc1cc(-c3cnn(C(C)C)c3)nn1C2` [Example 108] it was 285 nM.
`CC(=O)Nc1ccc2c(c1)OCc1cc(-c3cnn(CF)c3)nn1C2` [Example 117] yielded an IC50 of 204 nM.
On the same count and under the same terms, as for `CC(=O)Nc1ccc2c(c1)OCc1cc(-c3cccnc3)nn1C2` [Example 127], the figure is 1360 nM.
